Test results as given in ChEMBL document CHEMBL1201862, “PubChem BioAssay data set” (2004).
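Results reflect a 48-hour exposure of cells in 96-well plates to compound at five concentrations. Abbreviation: GI50, concentration required for 50% inhibition of growth.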 Calls of active or inactive are those of the source. Rule as the data show it: active = GI50 up to about 1.1 µM and inactive = higher.

Tests used:
Assay in all cases: DTP human tumour cell line panel, 48 h
[1] = system: HCC 2998
[2] = system: UACC-257
[3] = system: SK-OV-3
[4] = system: UACC-62
[5] = system: SNB-19
[6] = system: HT-29
[7] = system: Malme-3M
[8] = system: SNB-78
[9] = system: HOP-92
[10] = system: DLD-1
[11] = system: NCI-H522
[12] = system: SW-620
[13] = system: RXF 631
[14] = system: OVCAR-8
[15] = system: LXFL 529
[16] = system: XF498
[17] = system: DMS-273
[18] = system: LOX IMVI
[19] = system: EKVX
[20] = system: NCI-H460
[21] = system: HL-60
[22] = system: OVCAR-4
[23] = system: ACHN
[24] = system: OVCAR-5
[25] = system: K562
[26] = system: SN12C
[27] = system: 786-0
[28] = system: IGROV-1
[29] = system: SK-MEL-28
[30] = system: CCRF-CEM
[31] = system: M19-MEL
[32] = system: MOLT-4
[33] = system: NCI-H23
[34] = system: OVCAR-3
[35] = system: CAKI-1
[36] = system: HOP-18
[37] = system: SF-268
[38] = system: HCT-116
[39] = system: SNB-75
[40] = system: SF-539
[41] = system: SR
[42] = system: HOP-62
[43] = system: DMS-114
[44] = system: TK-10
[45] = system: UO-31
[46] = system: KM-20L2
[47] = system: SK-MEL-5
[48] = system: RXF 393
[49] = system: NCI-H226
[50] = system: KM12
[51] = system: A549
[52] = system: U-251
[53] = system: RPMI-8226
[54] = system: SK-MEL-2
[55] = system: COLO 205
[56] = system: M14
[57] = system: SF-295
[58] = system: A498
[59] = system: HCT-15
[60] = system: Hs-578T
[61] = system: DU-145
[62] = system: T47D
[63] = system: MCF7
[64] = system: BT-549
[65] = system: MDA-N
[66] = system: MDA-MB-231
[67] = system: PC-3

Measured: GI50

CCOc1ccccc1/N=N/c1c(-c2ccccc2)nn(C(=O)CC(=O)Nc2cccc(C)c2)c1-c1ccccc1
inactive: [1] 22.7 µM | [2] > 100 µM | [3] > 100 µM | [4] > 100 µM | [5] > 100 µM | [6] 39.6 µM | [7] > 100 µM | [8] > 100 µM | [9] > 100 µM | [10] 62.8 µM | [11] > 100 µM | [12] > 100 µM | [13] 26.2 µM | [14] > 100 µM | [15] > 100 µM | [16] > 100 µM | [17] > 100 µM | [18] > 100 µM | [19] 56.6 µM | [20] > 100 µM | [21] > 100 µM | [22] > 100 µM | [23] 54.3 µM | [24] > 100 µM | [25] 62.7 µM | [26] > 100 µM | [27] > 100 µM | [28] > 100 µM | [29] > 100 µM | [30] > 100 µM | [31] > 100 µM | [32] > 100 µM | [33] > 100 µM | [34] > 100 µM | [35] > 100 µM | [36] > 100 µM | [37] 74.8 µM | [38] > 100 µM | [39] 27.4 µM | [40] > 100 µM | [41] > 100 µM | [42] > 100 µM | [43] 44.8 µM | [44] > 100 µM | [45] 35.2 µM | [46] > 100 µM | [47] > 100 µM | [48] > 100 µM | [49] > 100 µM | [50] 94 µM | [51] > 100 µM | [52] > 100 µM | [53] > 100 µM | [54] > 100 µM | [55] > 100 µM | [56] > 100 µM | [57] > 100 µM

CSC1=Nc2ccccc2N=C(c2ccccc2)C1
inactive: [1] 62.2 µM | [2] 33.1 µM | [3] > 100 µM | [4] > 100 µM | [5] > 100 µM | [6] 46.7 µM | [7] > 100 µM | [8] > 100 µM | [9] 20.2 µM | [10] 29.4 µM | [11] 37.6 µM | [12] 15.1 µM | [13] 46.7 µM | [14] 61.7 µM | [15] 70 µM | [16] 39.4 µM | [17] 39.6 µM | [58] > 100 µM | [18] 17.2 µM | [19] 54.8 µM | [20] 19.1 µM | [21] 15.3 µM | [22] > 100 µM | [23] > 100 µM | [24] 67.1 µM | [25] 34.6 µM | [26] > 100 µM | [27] 34.5 µM | [28] > 100 µM | [29] > 100 µM | [30] 21 µM | [31] 54.6 µM | [32] 27.9 µM | [33] 50.2 µM | [34] 30.7 µM | [35] 75.2 µM | [36] > 100 µM | [37] > 100 µM | [38] 24.6 µM | [39] 66.5 µM | [40] > 100 µM | [41] 24 µM | [42] > 100 µM | [43] 21.5 µM | [44] 80 µM | [45] 38 µM | [46] 35.4 µM | [47] 44.5 µM | [48] 20.4 µM | [49] > 100 µM | [50] 36 µM | [51] 80.2 µM | [52] > 100 µM | [54] > 100 µM | [55] 21.2 µM | [56] > 100 µM | [57] > 100 µM
33.3 µM: [59]

Cc1ccc(OC(=O)N2C/C(=C\c3ccccc3)C(=O)/C(=C/c3ccccc3)C2)cc1
active: [53] 0.403 µM
26.3 µM: [59]
inactive: [1] 10 µM | [2] 40.6 µM | [3] 41.3 µM | [4] 23.5 µM | [5] 43.5 µM | [60] 20.9 µM | [6] 4.93 µM | [7] > 76 µM | [8] 28.4 µM | [9] > 100 µM | [61] > 100 µM | [62] > 100 µM | [10] 6.84 µM | [11] 13 µM | [63] 5.14 µM | [12] 4.47 µM | [13] 40.7 µM | [14] 19.6 µM | [64] 29 µM | [65] 4.02 µM | [66] 26.7 µM | [15] 9.98 µM | [16] 26.2 µM | [17] 4.83 µM | [58] > 66.5 µM | [18] 3.29 µM | [19] > 100 µM | [20] 53 µM | [21] 3.84 µM | [22] 23.5 µM | [23] 26.7 µM | [24] 76 µM | [25] 3.94 µM | [26] 24.8 µM | [27] 17.1 µM | [28] 40.7 µM | [29] 25.7 µM | [30] 3.2 µM | [31] 5.53 µM | [32] 4.07 µM | [33] 26.4 µM | [34] 25.6 µM | [35] 49.9 µM | [36] > 46.2 µM | [37] 34.1 µM | [38] 2.13 µM | [39] 23 µM | [40] 26.4 µM | [41] 3.43 µM | [42] 18.5 µM | [43] 15.1 µM | [44] 32.1 µM | [45] 36.9 µM | [46] 39.7 µM | [47] 20.6 µM | [48] 20.1 µM | [67] 27.6 µM | [49] 56.5 µM | [50] 16.2 µM | [51] > 69.5 µM | [52] 9.25 µM | [54] 42.6 µM | [55] > 68.7 µM | [56] 8.79 µM | [57] 18.7 µM

COC(=O)C(C(=O)C(=O)Nc1cccc(C)c1)C1=NC(N)SS1 (stereo not given)
inactive: [1] > 100 µM | [2] > 100 µM | [3] > 100 µM | [4] > 100 µM | [5] > 100 µM | [6] > 100 µM | [7] > 100 µM | [8] > 100 µM | [10] > 100 µM | [11] > 100 µM | [12] > 100 µM | [13] > 100 µM | [14] > 100 µM | [15] > 100 µM | [16] > 100 µM | [17] > 100 µM | [58] > 100 µM | [18] > 100 µM | [19] > 100 µM | [20] > 100 µM | [21] > 100 µM | [22] > 100 µM | [23] > 100 µM | [24] > 100 µM | [25] > 100 µM | [26] > 100 µM | [27] > 100 µM | [28] > 100 µM | [29] > 100 µM | [30] > 100 µM | [31] > 100 µM | [32] > 100 µM | [33] > 100 µM | [34] > 100 µM | [35] > 100 µM | [36] > 100 µM | [37] > 100 µM | [38] > 100 µM | [39] > 100 µM | [40] > 100 µM | [41] > 100 µM | [42] > 100 µM | [43] > 100 µM | [44] > 100 µM | [45] > 100 µM | [46] > 100 µM | [47] > 100 µM | [48] > 100 µM | [49] > 100 µM | [50] > 100 µM | [51] > 100 µM | [52] > 100 µM | [53] > 100 µM | [54] > 100 µM | [55] > 100 µM | [56] > 100 µM | [57] > 100 µM
> 100 µM: [59]
